Measurements published in patent US20060166237A1, “Method of detecting reaction of DNA and DNA-binding protein” (OLYMPUS CORPORATION, priority 2003, published 2006).

Key:
Assay type in all cases: cell-based
[1] = test system: transcription factor AP-1 in HeLa cell; test: Activation of AP-1 in HeLa cell nucleus by TNF-α and APDC stimulation, FCS readout (Experiment 7-1)
Protocol: (§1) Two hours after addition of APDC, a tumor necrosis factor TNF-α is added to stimulate HeLa cell for 30 minutes, from which a nucleus extract is prepared. A nucleus extract having a concentration of 5, 10 or 20 μg is prepared. Stimulation on a cell is performed in the following two cases.
(§2) (I) The case where stimulation with only a tumor necrosis factor TNF-α is performed for 30 minutes. A concentration of a tumor necrosis factor TNF-α is 0, 10, 25 or 50 ng/ml.
(§3) (II) The case where stimulation with a tumor necrosis factor TNF-α is performed for 30 minutes, two hours after addition of APDC. A concentration of APDC is 10, 100 or 200 μM relative to a 50 ng/ml of a tumor necrosis factor TNF-α.
(§4) [Experiment 7-1] Experiment of a reaction of a (fluorescently labeled) DNA having an AP-1-binding sequence and a cell nucleus extract. The Experiment was performed using a cell nucleus extract which is extracted under the condition of a different concentration of an added tumor necrosis factor TNF-α and a different concentration of an added APDC.
The following shown in Table 28 are used to perform a binding reaction experiment in the same way as Experiment 3-1.

[2] = test system: transcription factor NF-κB in HeLa cell; test: Activation of NF-κB in HeLa cell nucleus by TNF-α and APDC stimulation, FCS readout (Experiment 7-2)
Protocol: as §1, §2, §3
[Experiment 7-2] Experiment of a reaction of a (fluorescently labeled) DNA having an […] sequence and a cell nucleus extract. The Experiment was performed using a cell nucleus extract which is extracted under the condition of a different concentration of an added tumor necrosis factor TNF-α and a different concentration of added APDC.
The following shown in Table 29 are used to perform a binding reaction experiment in the same way as Experiment 3-2.

[3] = test system: transcription factor AP-1 in HeLa cell; test: Activation of AP-1 in HeLa cell nucleus by TNF-α stimulation time, FCS readout (Experiment 6-1); settings: 50 ng/ml TNF-α, nucleus extract 20 μg, DNA 20, FIG. 18
Protocol: as §4, with “6-1]” for “7-1]”, “time length” for “concentration”, “stimulation with a” for “an added”, “TNF-α.” for “TNF-α and a different concentration of an added APDC.”
50 ng/ml of a tumor necrosis factor TNF-α was added to HeLa cell, and the HeLa cell was stimulated for 0, 15, 30, 60, 120 or 180 minutes. Then, a nucleus extract was prepared from each HeLa cell (for preparation method, see Example 3). A concentration of a nucleus extract was set to be 20 μg.
The following shown in Table 26 are used to perform a binding reaction experiment in the same way as Experiment 3-1.

[4] = test system: transcription factor NF-κB in HeLa cell; test: Activation of NF-κB in HeLa cell nucleus by TNF-α stimulation time, FCS readout (Experiment 6-2); settings: 50 ng/ml TNF-α, nucleus extract 20 μg, DNA 30, FIG. 19
Protocol: [Experiment 6-2] Experiment of a reaction of a (fluorescently labeled) DNA having an NF-κB-binding sequence and a cell nucleus extract. The Experiment was performed using a cell nucleus extract which is extracted under the condition of a different time length of stimulation with a tumor necrosis factor TNF-α.
In the same way as Experiment 6-1, 50 ng/ml of a tumor necrosis factor TNF-α was added to HeLa cell, and the HeLa cell was stimulated for 0, 15, 30, 60, 120 or 180 minutes. Then, a nucleus extract was prepared from each HeLa cell.
The following shown in Table 27 are used to perform a binding reaction experiment in the same way as Experiment 3-2.

[5] = HeLa cell, APDC 10, 100 or 200 μM with 50 ng/ml TNF-α

Row | Molecule | activation of transcription factor AP-1 in cell nucleus extract ([1]; APDC 100 μM and 200 μM, added 2 hours before 50 ng/ml TNF-α for 30 minutes, FIG. 20) | effect of APDC on activation of transcription factor AP-1 by TNF-α [1, 5] | effect of APDC on activation of transcription factor NF-κB by TNF-α [2, 5] | stimulation time giving greatest translational diffusion time (AP-1 sufficiently activated) [3] | stimulation time giving greatest translational diffusion time (NF-κB sufficiently activated) [4] | activation of transcription factor NF-κB in cell nucleus extract ([2]; stimulation with only TNF-α 50 ng/ml for 30 minutes, FIG. 21)
1 | N.S=C(S)N1CCCC1 [APDC, Ammonium pyrrolidinedithiocarbamate] | most activated | promotes activation of a transcription factor AP-1 by a tumor necrosis factor TNF-α | suppresses activation of a transcription factor NF-κB by a tumor necrosis factor TNF-α | – | – | –
2 | tumor necrosis factor TNF-α | – | – | – | 30 min | 15 min | most activated
